The text below walks through data of US20180318199A1, “Pharmaceutical Composition Having Anti-Aging Properties against High-Glucose” (TAIWAN LEADER BIOTECH CORP., priority 2017, published 2018).

Common to all, as to format: cell-based, human
For series [1], the system named is HNDFs. The experiment in a line: SA-β-gal senescence assay in HG-induced HNDFs. As to conditions: for SA-β-gal positive cells: 10 μM compound + HG 30 mM, 72 h, HG alone 9.59-fold (FIG. 2B). On the procedure:
Next, the protective effects of antcins on HG-induced HNDF senescence are examined. In FIG. 2B, cells were incubated with ANA (10 μM), ANH (10 μM) and ANM (10 μM) in the presence of HG (30 mM) for 72 h. Cellular senescence is determined by SA-β-gal activity. […] After cells are co-incubated with HG and antcins (ANA, ANH and ANM) for 72 h, senescence is measured by SA-β-gal assay.
Therefore, in order to examine whether the ROS inhibitory effect may be extended to suppress HG-induced senescence, HG-induced senescenece eliminated by ANM is examined. In FIG. 4B, HNDFs are incubated with ANM (10 μM) or NAC (100 μM) in the presence or absence of HG (30 mM) for 72 h. Cellular senescence is determined by SA-β-gal assay. […] As is shown, cells are co-incubated with HG and ANM or NAC for 72 h.
Senescence-associated β-galactosidase (SA-β-gal) activity is determined in formaldehyde-fixed histochemical staining kit according to the manufacturer's instructions (Cell Signaling Technology, Danvers, Calif.). Briefly, cells are grown in 6-well plates at a density of 5×10^4 cells/well, and incubated with HG or test samples for 48 h (HUVECs) or 72 h (HNDFs). After incubation, cells are stained with SA-β-gal staining solution at pH 6.0 overnight and then the development of blue staining is observed and photographed under a bright-field microscope (Motic Electric Group, Xiamen, P.R. China).

Series [2] relates to p16^INK4A, p21^CIP1 and SMP30. The experiment in a line: Western blot of senescence-associated marker proteins in HNDFs. As to conditions: 10 μM + HG 30 mM, 72 h, western blot. How it is done: In addition, in FIG. 2C, HNDFs are incubated with ANA (10 μM), ANH (10 μM) and ANM (10 μM) in the presence of HG (30 mM) for 72 h. Senescence-associated marker proteins such as p16^INK4A, p21^CIP1 and SMP30 are determined by western blot analysis.
In order to assess the cellular and molecular basis of the ANM-mediated inhibition of senescence, the expression levels of senescence-associated marker proteins including, p16^INK4A and p21^CIP1 are examined. In FIG. 4D, to determine the effect of ANM on senescence-associated protein expression, HNDFs are incubated with ANM (10 μM) or NAC (100 μM) in the presence or absence of HG (30 mM) for 72 h. Immunoblotting analysis is used to determine the protein levels with corresponding specific antibodies.
(§1) Cells are lysed by either RIPA lysis buffer or nuclear and cytoplasmic extraction reagents (Thermo Fisher Scientific). Protein concentrations are determined by Bio-Rad protein assay reagent (Bio-Rad Laboratories, Hercules, Calif.). Equal amounts of protein samples (60 μg) are separated by 7-12% SDS-PAGE and the separated proteins are transferred onto polyvinylidene […] (PVDC) membrane overnight. The transferred protein membranes are blocked with 5% non-fat dried milk for 30 min, followed by incubation with specific primary antibodies overnight, and either horseradish peroxidase-conjugated goat anti-rabbit or anti-mouse antibodies for 2 h. The blots are detected using VL Chemi-Smart 3000 (Viogene Biotek, Sunnyvale, Calif.) with the enhanced chemiluminescence (ECL) western blotting reagent (Millipore, Billerica, Mass.).
In general terms: In western blotting, separated proteins are transferred to a membrane and probed.

The test system of series [3] is HNDFs. The experiment in a line: Trypan blue exclusion cell proliferation assay in HNDFs. As to conditions: antcins 10 μM + HG 30 mM, 72 h, trypan blue exclusion. On the procedure: To further clarify the effect of antcins, HG-induced reduction in cell proliferation is determined. In FIG. 2D, to determine the effect of antcins on cell proliferation efficacy, 5×10^4 cells/well of HNDFs are incubated with antcins in 6-well plates in the presence of HG (30 mM) for 72 h. Number of viable cells is quantified by the tryphan blue exclusion method. Results are expressed as mean±S.E.M of three indipendent expriments. Statistical significance is set at ^ϕP<0.05 as compared to NG vs. HG and *P<0.05 as compared to HG vs. samples. […] Therefore, the molecular mechanism underlying the protective effect of ANM is explored next.
Furthermore, in FIG. 3C, to determine the effect of ANM or NAC on cell proliferation, 5×10^4 cells/well of HNDFs are incubated in a 6-well plate with ANM (10 μM) or NAC (100 μM) in the presence of HG (30 mM) for 72 h. Number of viable cells is quantified by the tryphan blue exclusion method. Results expressed as mean±S.E.M of three independent experiments. Statistical significance is set at ^ϕP<0.05 as compared to NG vs. HG and *P<0.05 as compared to HG vs. samples.
Cell proliferation is evaluated using trypan blue exclusion assay as described previously with minor modification. Cells are plated into 6-well plates at a density of 5×10^4 cells/well. After incubation overnight, cells are treated with test samples in the presence or absence of HG for 24-72 h. Cells exposed to 0.2% Trypan blue are then counted in a hemocytometer, and cells stained with Trypan blue are excluded. Percentage of viable cells is calculated based on the ratio of viable cells to total cell population in each well. The proliferation rate is calculated based on the number of viable cells in HG or sample-treated groups versus the NG-treated group.

Another series deals with HNDFs (CCD966SK). The experiment in a line: MTT cytotoxicity of antcins against HNDFs. As to conditions: for cytotoxicity to HNDFs (in words): MTT, 72 h, up to 20 μM; for IC50: MTT assay, 72 h, 1, 5, 10 and 20 μM tested, read-out: 50% inhibitory concentration (IC50) against HNDFs. How it is done:
Please refer to FIG. 2A˜FIG. 2D, which are views showing HG-induced senescence affected by antcins in HNDFs. As shown in the figures, prior to an investigation, cytotoxicity of antcins against HNDFs is determined. In FIG. 2A, type of antcins are subjected to screen for potential anti-aging agents for skin aging. Names and chemical structures of the antcins are shown in the left and center column, respectively. The cytotoxic effects of antcins against HNDFs are investigated. Briefly, HNDFs are incubated with increasing concentrations (1, 5, 10 and 20 μM) of antcins including ANA, ANB, ANC, ANH, ANK and ANM for 72 h and the cell viability is determined by MTT assay. The 50% inhibitory concentrations (IC50) of each compound against HNDFs are shown in right column.
Cell viability is assessed by MTT colorimetric assay. Briefly, HNDFs (2×10^4cells/well) or HUVECs (5×10^4 cells/well) are seeded in a 24-well culture plate. After treatment with HG (15 and 30 mM) in the presence or absence of samples for 24-72 h, culture media is withdrawn and incubated with MTT (1 mg/mL) in fresh medium for 2 h. The MTT formazan crystals are dissolved in 400 μL of DMSO and the samples are measured at 570 nm […] using an ELISA microplate reader (Bio-Tek Instruments, Winooski, Vt.). The percentage of cell viability (%) is calculated as (A570 of treated cells/A570 of untreated cells)×100.
A general note: Tetrazolium assays rely on reduction of a dye to a coloured formazan, in cell work by metabolically active cells.

A further series deals with p53 and FoxO1. The experiment in a line: Western blot of p53 and FoxO1 acetylation/phosphorylation in HNDFs. The conditions noted are these: pharmacological inhibitor in the presence of HG (FIG. 4G). On the procedure: It is well known that p16^INK4A and p21^CIP1 are regulated by transcription factors p53 and FoxO1 followed by acetylation. […] In addition, p53 phosphorylation at Ser15 by their upstream kinases promotes transcriptional activation in response to DNA damage.
To further examine the phenomenon that HG-induced p53 activation is relayed by the p38 MAPK or JNK/SAPK cascade, cells are incubated with corresponding pharmacological inhibitors, SB203580, SP600125, PD98059 and LY294002 for p38MAPK, JNK/SAPK, ERK1/2 and P13K/AKT, respectively in the presence of HG.
The protein expression levels of SIRT-1, SIRT-6, p21^CIP1, SMP30, p53, FoxO and acetylation of p53 and FoxO1 are determined by western blot analysis.
as §1

Another series concerns Nrf2. The experiment in a line: ARE luciferase reporter assay (Nrf2 transcriptional activity) in HNDFs. As to conditions: inhibitor 30 μM 2 h, then ANM 10 μM + HG 30 mM 6 h. On the procedure:
Therefore, to determine whether ANM augments Nrf2 transcriptional activity, ARE-harboring luciferase reporter assay is used. In FIG. 5E, to determine the Nrf2 transcriptional activity, HNDFs are transiently transfected with ARE promoter construct using lipofectamine and incubated with ANM (10 μM) or NAC (100 μM) in the presence or absence of HG (30 mM) for 6 h. Cell lysates are mixed with luciferase reagents and quantified using an illuminometer. Relative ARE promoter activity is calculated by dividing the relative luciferace unit (RLU) of treated cells by RLU of untreated cells (NG).
Activation of P13K/AKT and mitogen-activated protein kinases (MAPKs), including ERK1/2, JNK/SAPK and p38 MAPK, facilitates Nrf2 transcriptional activation in a variety of human cell lines. […] To elucidate the upstream signaling events involved in ANM-induced Nrf2 transcriptional activity, cells are pre-incubated with pharmacological inhibitors of P13K/AKT (LY294002), ERK1/2 (PD98059), SAPK/JNK (SP600125) and p38MAPK (SB203580) for 2 h and treated with ANM for 6 h in the presence of HG. In FIG. 5G, HNDFs are pre-incubated with AKT, ERK1/2, JNK/SAPK and p38 MAPK inhibitors, including LY294002 (LY, 30 μM), PD98059 (PD, 30 μM), SP600125 (SP, 30 μM) and SB203580 (SB, 30 μM), respectively, for 2 h and then incubated with ANM (10 μM) in the presence of HG (30 mM) for 6 h. Cytoplasmic and nuclear fractions are prepared and subjected to western blot analysis. GAPDH and histone H3 are served as internal controls for the cytoplasmic and nuclear fraction, respectively.
ARE promoter activity is measured using a dual-luciferase reporter assay system (Promega, Madison, Wis.). […] Cells are then transfected with ARE plasmid (Qiagen, Hilden, Germany) using Lipofectamine 2000 (Invitrogen) and incubated for 36 h. […] The cell lysate is prepared and incubated with luciferase agents and the relative luminescence intensity is quantified using a spectrophotometer (Hidex Oy, Turku, Finland).

Consider `C=C(CC[C@@H](C)[C@H]1CC[C@H]2C3=C(C(=O)C[C@]12C)[C@@]1(C)CCC(=O)[C@@H](C)[C@@H]1CC3)C(C)C(=O)O` (stereo partly shown) [ANA, antcin A], for which the SA-β-gal positive cells with HNDFs [1] was 7.46 fold. In addition, in series [2], the “HG-induced p16^INK4A and p21^CIP1 protein expression” value was “moderate inhibition”. Moreover, the “cell proliferation (number of viable cells) vs HG group” value in the series on HNDFs [3] was “partially increase”. Further, the “cytotoxicity to HNDFs (in words)” value with HNDFs (CCD966SK) is listed as “did not show significant cytotoxicity”.

Consider `C=C(CC[C@@H](C)[C@H]1CC[C@H]2C3=C(C(=O)C[C@]12C)[C@@]1(C)CCC(=O)[C@@H](C)[C@@H]1CC3=O)[C@H](C)C(=O)O` [ANB, antcin B], for which, in the series on HNDFs (CCD966SK), the IC50 turned out to be 7.11 µM and the “cytotoxicity to HNDFs (in words)” value is “strong cytotoxicity”.

As for `C=C(CC[C@@H](C)[C@H]1CC[C@H]2C3=C(C(=O)C[C@]12C)[C@@]1(C)CCC(=O)[C@@H](C)[C@@H]1C[C@@H]3O)[C@H](C)C(=O)O` [ANC, antcin C], in the series on HNDFs (CCD966SK), the “cytotoxicity to HNDFs (in words)” value was “did not show significant cytotoxicity”.

Regarding `C=C(CCC(C)C1CCC2C3=C(C(=O)C(O)C21C)C1(C)CCC(O)C(C)C1CC3=O)C(C)C(=O)O` (stereo not shown) [ANH, antcin H], the SA-β-gal positive cells with HNDFs [1] amounted to 8.13 fold. The “HG-induced p16^INK4A and p21^CIP1 protein expression” value in series [2] is given as “moderate inhibition”. Moreover, the “cell proliferation (number of viable cells) vs HG group” value in the series on HNDFs [3] is given as “partially increase”. In the series with HNDFs (CCD966SK), the “cytotoxicity to HNDFs (in words)” value is on record as “did not show significant cytotoxicity”.

Turning to `C=C(CC[C@@H](C)[C@H]1CC[C@H]2C3=C(C(=O)C[C@]12C)[C@@]1(C)CC[C@@H](O)[C@](C)(O)[C@@H]1C[C@@H]3O)C(C)C(=O)O` (stereo partly shown) [ANK, antcin K], in the series on HNDFs (CCD966SK), the IC50 was 2.89 µM and the “cytotoxicity to HNDFs (in words)” value is reported as “strong cytotoxicity”.

On to `COc1cccc(-c2cc(=O)c3ccccc3o2)c1N` [PD98059, reference compound], for which, in the series on HNDFs [1] (inhibitor 30 μM + HG 30 mM, 72 h (FIG. 4H)), the “HG-induced SA-β-gal activity, kinase inhibitors” value was “does not affect”. The “HG-induced p16^INK4A expression and p53 phosphorylation, kinase inhibitors” value in the series on p53 and FoxO1 is “fails to protect”. For the same compound, the “ANM-induced ARE luciferase activity after inhibitor pretreatment” value with Nrf2 is reported as “effectively suppresses”.
